Values quoted from earlier work, collected in publication PMC12930396, “Positive modulators of N-methyl-D-aspartate receptor: structure–activity relationship study on steroidal C-17 and C-20 oxime ethers” (RSC Advances, 2026).

Target: T1, GluN1/GluN2B receptors (Rattus norvegicus, UniProt P35439+Q00960)
T1 construct: expressed in transfected cells; host or cells: HEK293 cells (ATCC No. CRL-1573)
Set-up: method as in PMID 29708744
Conditions: reference compound PES; cited from earlier work

T1 sequence (Q00960 27-1482, other chains not shown): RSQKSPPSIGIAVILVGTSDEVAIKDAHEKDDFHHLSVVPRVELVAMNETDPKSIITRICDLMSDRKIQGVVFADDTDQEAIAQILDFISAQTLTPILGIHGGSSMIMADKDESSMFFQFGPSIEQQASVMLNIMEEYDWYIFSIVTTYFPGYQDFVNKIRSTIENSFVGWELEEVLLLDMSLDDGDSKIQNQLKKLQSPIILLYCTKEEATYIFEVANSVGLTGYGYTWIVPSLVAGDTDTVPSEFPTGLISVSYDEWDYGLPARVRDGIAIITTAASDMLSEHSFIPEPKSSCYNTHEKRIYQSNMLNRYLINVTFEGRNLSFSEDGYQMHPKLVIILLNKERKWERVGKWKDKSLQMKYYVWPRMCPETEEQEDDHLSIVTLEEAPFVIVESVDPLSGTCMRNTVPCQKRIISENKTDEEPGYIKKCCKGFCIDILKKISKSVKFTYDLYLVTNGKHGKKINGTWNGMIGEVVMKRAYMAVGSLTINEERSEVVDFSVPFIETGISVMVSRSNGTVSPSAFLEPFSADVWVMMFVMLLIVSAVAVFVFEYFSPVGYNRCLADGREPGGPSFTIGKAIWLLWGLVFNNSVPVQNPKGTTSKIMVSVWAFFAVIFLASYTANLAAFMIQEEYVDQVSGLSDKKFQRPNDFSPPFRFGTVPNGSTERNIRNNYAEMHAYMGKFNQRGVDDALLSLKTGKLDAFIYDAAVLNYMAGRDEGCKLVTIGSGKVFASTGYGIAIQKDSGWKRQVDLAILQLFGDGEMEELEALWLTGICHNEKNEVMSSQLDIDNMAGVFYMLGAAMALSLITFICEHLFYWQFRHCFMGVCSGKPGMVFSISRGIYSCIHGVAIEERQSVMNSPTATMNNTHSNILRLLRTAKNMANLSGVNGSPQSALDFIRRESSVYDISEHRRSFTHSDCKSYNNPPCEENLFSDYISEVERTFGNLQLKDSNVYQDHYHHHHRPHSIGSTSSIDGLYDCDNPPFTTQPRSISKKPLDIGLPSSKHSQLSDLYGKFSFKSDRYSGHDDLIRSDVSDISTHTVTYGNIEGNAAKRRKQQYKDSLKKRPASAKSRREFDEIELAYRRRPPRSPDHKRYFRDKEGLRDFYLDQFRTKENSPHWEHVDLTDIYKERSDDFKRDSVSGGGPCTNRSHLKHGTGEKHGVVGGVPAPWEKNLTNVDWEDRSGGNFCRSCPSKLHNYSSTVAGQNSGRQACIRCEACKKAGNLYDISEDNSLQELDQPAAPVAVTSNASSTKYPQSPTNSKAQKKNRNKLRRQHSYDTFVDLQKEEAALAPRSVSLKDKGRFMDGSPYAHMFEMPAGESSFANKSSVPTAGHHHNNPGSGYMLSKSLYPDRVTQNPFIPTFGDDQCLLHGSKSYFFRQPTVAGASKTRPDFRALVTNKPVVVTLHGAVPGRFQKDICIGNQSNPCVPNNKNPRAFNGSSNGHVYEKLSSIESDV

Substance: 20-oxo-pregn-5-en-3β-yl sulfate [PES]
- E max ± SEM: 116 ± 10%
- h ± SEM (apparent Hill coefficient): 1.5 ± 0.1
